Laboratory results from the supplement of paper PMC10307832.

Key:
Assay in all cases: relative viability (nuclei count vs DMSO), 5 days (fraction); higher = more cells survive
NCI-H322M = system: NCI-H322M
Outline: (§1)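 Lung cancer cell lines, seeded in 1536-well plates, were treated the following day by pin tool with a single drug or with five library-drug doses (not always all listed) in √10 steps on top of a fixed anchor-drug dose. Cells were fixed and nuclei stained in one step after 5 days, and nuclei were counted. Relative viability is the nuclei count for treated wells divided by that for vehicle wells, reported as medians of duplicate plates.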

LK-2 = system: LK-2
Outline: as §1

NCI-H1975 = system: NCI-H1975
Outline: as §1

EMC-BAC-2 = system: EMC-BAC-2
Outline: as §1

NCI-H1944 = system: NCI-H1944
Outline: as §1

RERF-LC-KJ = system: RERF-LC-KJ
Outline: as §1

NCI-H3122 = system: NCI-H3122
Outline: as §1

NCI-H460 = system: NCI-H460
Outline: as §1

NCI-H647 = system: NCI-H647
Outline: as §1

NCI-H1355 = system: NCI-H1355
Outline: as §1

PC-14 = system: PC-14
Outline: as §1

NCI-H1666 = system: NCI-H1666
Outline: as §1

NCI-H1648 = system: NCI-H1648
Outline: as §1

NCI-H2126 = system: NCI-H2126
Outline: as §1

NCI-H2085 = system: NCI-H2085
Outline: as §1

LCLC-103H = system: LCLC-103H
Outline: as §1

NCI-H2342 = system: NCI-H2342
Outline: as §1

SW 900 = system: SW 900
Outline: as §1

NCI-H1915 = system: NCI-H1915
Outline: as §1

NCI-H1437 = system: NCI-H1437
Outline: as §1

NCI-H1755 = system: NCI-H1755
Outline: as §1

NCI-H838 = system: NCI-H838
Outline: as §1

With `Oc1nc(-c2ccc(C(F)(F)F)cc2)nc2c1CSCC2` [XAV939] + NC(=O)Nc1cc(-c2cccc(F)c2)sc1C(=O)N[C@H]1CCCNC1 [AZD7762] (partner 0.2 µM) as the molecule, how does the relative viability (NCI-H322M; first compound 0.08 µM) read?
Its relative viability is 0.573.

And the relative viability (NCI-H322M; first compound 0.253 µM)?
Its relative viability is 0.45.

And the relative viability (NCI-H322M; first compound 0.8 µM)?
Its relative viability is 0.539.

What about the relative viability (NCI-H322M; first compound 2.53 µM) of the same molecule?
The relative viability was 0.495.

What about the relative viability (LK-2; first compound 0.08 µM) of the same molecule?
Its relative viability is 0.375.

What about the relative viability (LK-2; first compound 0.253 µM) of the same molecule?
The relative viability was 0.429.

And the relative viability (LK-2; first compound 0.8 µM)?
The relative viability was 0.344.

And the relative viability (LK-2; first compound 2.53 µM)?
The relative viability was 0.238.

And the relative viability (NCI-H1975; first compound 0.08 µM)?
The relative viability was 0.684.

What about the relative viability (NCI-H1975; first compound 0.253 µM) of the same molecule?
The relative viability was 0.534.

And the relative viability (NCI-H1975; first compound 0.8 µM)?
The relative viability was 0.504.

And the relative viability (NCI-H1975; first compound 2.53 µM)?
The relative viability was 0.516.

What about the relative viability (EMC-BAC-2; first compound 0.08 µM) of the same molecule?
Its relative viability is 1.1.

What about the relative viability (EMC-BAC-2; first compound 0.253 µM) of the same molecule?
Its relative viability is 1.04.

And the relative viability (EMC-BAC-2; first compound 0.8 µM)?
Its relative viability is 0.95.

And the relative viability (EMC-BAC-2; first compound 2.53 µM)?
The relative viability was 0.878.

And the relative viability (NCI-H1944; first compound 0.08 µM)?
The relative viability was 0.589.

And the relative viability (NCI-H1944; first compound 0.253 µM)?
Its relative viability is 0.539.

And the relative viability (NCI-H1944; first compound 0.8 µM)?
The relative viability was 0.477.

And the relative viability (NCI-H1944; first compound 2.53 µM)?
The relative viability was 0.382.

And the relative viability (RERF-LC-KJ; first compound 0.08 µM)?
Its relative viability is 0.925.

And the relative viability (RERF-LC-KJ; first compound 0.253 µM)?
The relative viability was 0.711.

What about the relative viability (RERF-LC-KJ; first compound 0.8 µM) of the same molecule?
The relative viability was 0.848.

What about the relative viability (RERF-LC-KJ; first compound 2.53 µM) of the same molecule?
The relative viability was 0.69.

What about the relative viability (NCI-H3122; first compound 0.08 µM) of the same molecule?
The relative viability was 1.01.

What about the relative viability (NCI-H3122; first compound 0.253 µM) of the same molecule?
Its relative viability is 0.964.

What about the relative viability (NCI-H3122; first compound 0.8 µM) of the same molecule?
The relative viability was 0.9.

What about the relative viability (NCI-H3122; first compound 2.53 µM) of the same molecule?
Its relative viability is 0.573.

What about the relative viability (NCI-H460; first compound 0.08 µM) of the same molecule?
The relative viability was 0.765.

What about the relative viability (NCI-H460; first compound 0.253 µM) of the same molecule?
The relative viability was 0.631.

And the relative viability (NCI-H460; first compound 0.8 µM)?
Its relative viability is 0.636.

And the relative viability (NCI-H460; first compound 2.53 µM)?
The relative viability was 0.551.

And the relative viability (NCI-H647; first compound 0.08 µM)?
The relative viability was 0.489.

What about the relative viability (NCI-H647; first compound 0.253 µM) of the same molecule?
Its relative viability is 0.351.

What about the relative viability (NCI-H647; first compound 0.8 µM) of the same molecule?
Its relative viability is 0.319.

And the relative viability (NCI-H647; first compound 2.53 µM)?
Its relative viability is 0.412.

And the relative viability (NCI-H1355; first compound 0.08 µM)?
The relative viability was 0.728.

What about the relative viability (NCI-H1355; first compound 0.253 µM) of the same molecule?
Its relative viability is 0.613.

What about the relative viability (NCI-H1355; first compound 0.8 µM) of the same molecule?
Its relative viability is 0.626.

And the relative viability (NCI-H1355; first compound 2.53 µM)?
Its relative viability is 0.561.

What about the relative viability (PC-14; first compound 0.08 µM) of the same molecule?
Its relative viability is 0.352.

What about the relative viability (PC-14; first compound 0.253 µM) of the same molecule?
The relative viability was 0.333.

What about the relative viability (PC-14; first compound 0.8 µM) of the same molecule?
The relative viability was 0.304.

What about the relative viability (PC-14; first compound 2.53 µM) of the same molecule?
The relative viability was 0.345.

And the relative viability (NCI-H1666; first compound 0.08 µM)?
Its relative viability is 0.885.

And the relative viability (NCI-H1666; first compound 0.253 µM)?
Its relative viability is 0.656.

And the relative viability (NCI-H1666; first compound 0.8 µM)?
Its relative viability is 0.735.

And the relative viability (NCI-H1666; first compound 2.53 µM)?
The relative viability was 0.621.

What about the relative viability (NCI-H1648; first compound 0.253 µM) of the same molecule?
Its relative viability is 0.501.

What about the relative viability (NCI-H1648; first compound 0.8 µM) of the same molecule?
The relative viability was 0.699.

What about the relative viability (NCI-H1648; first compound 2.53 µM) of the same molecule?
The relative viability was 0.598.

What about the relative viability (NCI-H2126; first compound 0.08 µM) of the same molecule?
The relative viability was 1.04.

And the relative viability (NCI-H2126; first compound 0.253 µM)?
Its relative viability is 0.912.

And the relative viability (NCI-H2126; first compound 0.8 µM)?
The relative viability was 0.943.

And the relative viability (NCI-H2126; first compound 2.53 µM)?
Its relative viability is 0.882.

And the relative viability (NCI-H2085; first compound 0.08 µM)?
The relative viability was 1.07.

What about the relative viability (NCI-H2085; first compound 0.253 µM) of the same molecule?
The relative viability was 0.876.

What about the relative viability (NCI-H2085; first compound 0.8 µM) of the same molecule?
Its relative viability is 0.896.

What about the relative viability (NCI-H2085; first compound 2.53 µM) of the same molecule?
Its relative viability is 0.881.

And the relative viability (LCLC-103H; first compound 0.08 µM)?
The relative viability was 0.869.

What about the relative viability (LCLC-103H; first compound 0.253 µM) of the same molecule?
The relative viability was 0.719.

What about the relative viability (LCLC-103H; first compound 0.8 µM) of the same molecule?
The relative viability was 0.792.

What about the relative viability (LCLC-103H; first compound 2.53 µM) of the same molecule?
Its relative viability is 0.68.

What about the relative viability (NCI-H2342; first compound 0.08 µM) of the same molecule?
Its relative viability is 0.425.

And the relative viability (NCI-H2342; first compound 0.253 µM)?
Its relative viability is 0.443.

And the relative viability (NCI-H2342; first compound 0.8 µM)?
The relative viability was 0.401.

And the relative viability (NCI-H2342; first compound 2.53 µM)?
The relative viability was 0.345.

What about the relative viability (SW 900; first compound 0.253 µM) of the same molecule?
The relative viability was 0.616.

What about the relative viability (SW 900; first compound 0.8 µM) of the same molecule?
Its relative viability is 0.599.

What about the relative viability (SW 900; first compound 2.53 µM) of the same molecule?
The relative viability was 0.501.

And the relative viability (NCI-H1915; first compound 0.08 µM)?
Its relative viability is 0.898.

And the relative viability (NCI-H1915; first compound 0.253 µM)?
Its relative viability is 0.674.

And the relative viability (NCI-H1915; first compound 0.8 µM)?
The relative viability was 0.693.

And the relative viability (NCI-H1915; first compound 2.53 µM)?
The relative viability was 0.665.

And the relative viability (NCI-H1437; first compound 0.08 µM)?
Its relative viability is 1.17.

And the relative viability (NCI-H1437; first compound 0.253 µM)?
Its relative viability is 1.07.

And the relative viability (NCI-H1437; first compound 0.8 µM)?
The relative viability was 1.1.

And the relative viability (NCI-H1437; first compound 2.53 µM)?
The relative viability was 1.02.

What about the relative viability (NCI-H1755; first compound 0.08 µM) of the same molecule?
Its relative viability is 0.394.

What about the relative viability (NCI-H1755; first compound 0.253 µM) of the same molecule?
The relative viability was 0.501.

What about the relative viability (NCI-H1755; first compound 0.8 µM) of the same molecule?
The relative viability was 0.443.

What about the relative viability (NCI-H1755; first compound 2.53 µM) of the same molecule?
Its relative viability is 0.458.

What about the relative viability (NCI-H838; first compound 0.08 µM) of the same molecule?
Its relative viability is 0.93.

What about the relative viability (NCI-H838; first compound 0.253 µM) of the same molecule?
Its relative viability is 0.842.

And the relative viability (NCI-H838; first compound 0.8 µM)?
The relative viability was 0.923.

And the relative viability (NCI-H838; first compound 2.53 µM)?
Its relative viability is 0.799.
